The text below walks through data of patent publication US8790883B2, “Methods of identifying NF-κB inhibitors” (priority 2003, dated 2014).

In data set [1] the target is T1, CC2 peptide (minimal oligomerization domain of NEMO) (Mus musculus, UniProt O88522).
T1 construct: made in house; host or cells: chemical solid-phase synthesis (Fmoc/tBu), no expression host
T1 sequence (O88522 253-287): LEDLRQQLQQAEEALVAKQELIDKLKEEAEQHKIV
The data set is described as follows: Fluorescence anisotropy titration with CC2 peptide. In kind it is binding, murine. How it is done:
(A) Direct titration of BODIPY-Ant-CC2 (1 μM) with CC2 by fluorescence anitropy. The concentration of CC2 was determined by amino acid analysis. Anisotropy values of BODIPY-Ant-CC2 in milliunits (mA) were plotted against an increasing concentration of the CC2 peptide. […] The two dashed lines represent a stoichiometric titration and intersect at an CC2 concentration of […]. Given the 1 μM concentration of the BODIPY-Ant-CC2, this gives a complex stoechiometrie of 0.8. (B) Direct titration of BODIPY-Ant-LZ (0.1 μM) with CC2 by fluorescence anitropy. […]
Anisotropy measurements were performed with a PTI QUANTAMASTER™ fluorometer equipped with polarizers for the excitation and emission beams. […] Steady-state fluorescence anisotropy was expressed as millianisotropy (mA) and was calculated according to the equations: (1) A=(IVV−GIVH)/(IVV+2GIVH); (2) G=IHV/IHH.; where A is anisotropy, G is a correction factor for wavelength-dependent distortion and I is the fluorescence intensity component (subscript referring to the vertical and horizontal positioning at the excitation and emission polarizers, respectively). […] The dissociation constant parameter was estimated by globally fitting the anisotropy data to binding isotherm equation as described in Agou et al. (J Biol Chem. 2004 Jul. 2; 279(27):27861-9) using KALEIDAGRAPH™ nonlinear regression software (Synergy Software, reading PA). […]

Data set [2] relates to LPS-induced NF-κB activation. Description: More stringent NF-κB inhibition assay, second procedure: peptide internalization, washing, 24 h growth, then LPS. Particulars: 10 μM peptide, LPS 5 h after 24 h growth. Format: cell-based, murine. The text has this: Left panels show a helical wheel diagram of CC2 (A) and LZ (B) peptides. The view is from the top the molecule. The (a) through (g) positions, which are an essential feature of coiled coil sequence (Vinson, 2002, Mol. Cell. Biol.) represent sequential positions in each peptide sequence. The first (a) and fourth (d) positions that are generally occupied by hydrophobic amino acids constitute the hydrophobic core for parallel as well as antiparallel-coiled coils. Mutations that were introduced in (a) positions of the CC2 variant (BODIPY-Ant-CC2 (Mu); shown as residues 6-40 of SEQ ID NO:3, with glycine mutations corresponding to residues 6-40 of SEQ ID NO:5) or in (d) positions of the LZ variant (BODIPY-Ant-(Mu) are shown. In the right panels, 70Z3-C3 cells were incubated for 2 hours in the absence (control) or in the presence of 10 μM of cell permeable wild type (BODIPY-Ant-CC2 (WT)) or mutant (BODIPY-Ant-CC2 (Mu)) CC2 peptides (A) or wild type (BODIPY-Ant-LZ (WT)) or mutant (BODIPY-Ant-(Mu)) LZ peptides (B). The cells were then extensively washed to remove the excess peptide which had not been internalized and the cells were then diluted three times and allowed to grow for 24 hours before treatment for 5 hours with (+) or without LPS (−). NF-κB activity was measured using the β-galactosidase assay. Error bars represent the standard deviation of two independent experiments.
(A) Sequence alignment of the NEMO-derived LZ (residues 301-336 of SEQ ID NO: 12) and the GCN4 peptides (residues 23-55 of SEQ ID NO:8). Both coiled-coil motifs were aligned using clustalX. Identical and similar amino acid residues (shaded) are indicated by (!) or (*), respectively. (B) Overview and helical wheel diagram of the GCN4 coiled-coil (top view). The amino-acid sequence of GCN4 is shown with its corresponding [a-g] positions and residues that differ from the corresponding NEMO-derived LZ sequence are boxed according to their degree of conservation. Identical (open square) and similar residues (open triangle) are indicated. […] NF-κB activity was measured using the b-galactosidase assay. […]

For data set [3], the system named is LPS-induced NF-κB activation. The data set is described as follows: NF-κB inhibition assay, first procedure: LPS-induced NF-κB dependent β-galactosidase reporter in 70Z/3-C3 cells. Format: cell-based, murine.
Description: The resulting cell line, 70Z3-C3, was incubated for 2 hours in the absence or in the presence of 20 μM of antennapedia peptide (Ant), or BODIPY-labeled antennapedia peptide (BODIPY-Ant), or BODIPY-labeled antennapedia peptide coupled to CC2 (BODIPY-Ant-CC2) or LZ (BODIPY-Ant-LZ) peptides, After peptide internalization, cells were treated for 5 hours with LPS (3 μg/ml, (+) in left panel) or untreated (right panel and (−) in left panel) and the NF-κB activity was measured by β-galactosidase assay. Error bars represent the standard deviation of three separate experiments. (B) Concentration dependence of inhibition of LPS-induced NF-κB activation by BODIPY-Ant-CC2 peptide (left panel) or BODIPY-Ant-LZ peptide (right panel). Cells were treated as in (A) but with different concentration of peptide as indicated. The potential of each peptide to inhibit LPS-induced NF-κB activation was measured by determining the IC50 value that correspond to 50% inhibition of LPS-induced NF-κB activation as compared to the control (no peptide) (C). (D) Effect of the N-fusion sequence of antennapedia on the inhibition of NF-κB activation. Control (no peptide) or CC2, or LZ peptides, with (BODIPY-ANT-CC2, BODIPY-ANT-LZ) or without the antennapedia sequence at the N-terminus (CC2, LZ) were incubated for 2 hours with 70Z3-C3 cells followed with (+) or without (−) the LPS-treatment for 3 hours. NF-κB activity was then measured by β-galactosidase assay.
In a first procedure 2.2×10^5 70Z/3-C3 cells in 220 μl of RPMI 1640 supplemented with 10% fetal calf serum (FCS) and 50 μM β-mercaptoethanol were placed in a 96-well plate and incubated with various concentrations of peptide (0 to 20 μM) at 37° C. in 5% CO2 incubator. After two hours an equal portion (100 μl) of each cell sample transferred in two wells containing each 10^5 cells. One aliquot of cells was then treated for 5 hours with lipopolysaccharides from Salmonella abortus (Sigma) at 0.5 μg/ml final concentration, and the other one left-treated. After 5 hours, cells were centrifuged at 400×g for 5 min at room temperature and the cell pellets were washed three times with cold PBS (250 μl) by centrifugation. Cells were then lysed in the lysis buffer (25 mM tris-phosphate buffer at pH 7.8 containing 8 mM magnesium chloride, 1 mM dithioerythreitol, 1% Triton X-100, 15% glycerol and a protease inhibitor mixture (Roche)), and samples were centrifuged at 4° C. for 20 min to clarify the lysate. The supernatant was then kept on ice, and 30 μl was then assayed to measure the β-galactosidase activity with a plate luminometer (Berthold) using the GALACTON-STAR™ as chemiluminescent substrate (BD Biosciences Clontech, Bronstein et al., 1989). Background of reaction was measured by mixing for 1 hour 30 μl of lysis buffer with the reaction buffer (196 μl) and the GALACTON-STAR™ substrate (4 μl) provided by BD Biosciences. In a second procedure and a more stringent assay, 70Z/3-C3 cells (2.2×105 in 220 μl medium) were centrifuged at 400×g at room temperature after peptide internalization for 2 hours, and cell pellets were washed three times with 200 μl of PBS by centrifugation. Cells were then diluted three times with complete medium, and allowed to grow for at least 24 hours. The following steps are identical to the first procedure.
To analyze the inhibition potential of LPS-induced NF-κB activation by cell permeable BODIPY-Ant-CC2 and BODIPY-Ant-LZ peptides, the present inventors stably transfected the murine pre-B 70Z3 cell line with p12XlacZ-kB, which bears the β-galactosidase reporter gene under the control of the NF-κB transcription factor.
Another data set deals with 70Z/3-C3 cells. The data set is described as follows: FACS analysis of cellular uptake of BODIPY-labelled peptides. Particulars: 0.2, 2 or 20 μM, 5 h, 37° C. On the technique in general: Flow cytometry measures light scatter and fluorescence of single cells or particles in a stream.
Data set [4] in a line: Circular dichroism studies of helix stability. In kind it is physicochemical. An excerpt:
From circular dichroism studies (CD), it appears that CC2 and LZ peptides adopt a helicoidal structure, depending on their concentration. […] RMN and Rayon X Diffraction studies have confirmed the structure of CC2.
(CD spectra are sensitive to the conformation of chiral molecules.)

Data set [5] is described as follows: Binding of NLM peptides, Hill coefficient calculation of cooperativity indices. The text has this: The present inventors compared NLM-DR to the corresponding NLM peptide by measuring the respective cooperativity indices, which evidence an advantage of NLM-DR mutated peptide over the wild-type.
The calculation of the “cooperativity indice” by means of Hill coefficient is based on the following formula Boundmax×L^n/(KD^n+L^n)
Wherein • Boundmax is the maximum concentration of the bound ligand, • L is the concentration of the free ligand, • n is the cooperativity indice and • KD, is the affinity constant of the ligand by the protein.

pIC50, pKd: −log10 of the molar value. * marks the point of attachment. BODIPYFLEthylmaleimide = Cc1cc(C)n2c1C=C1C=CC(CCC(=O)NCCN3C(=O)CC(*)C3=O)=[N+]1[B-]2(F)F

In the case of “Ac-C(BODIPYFLEthylmaleimide)RQIKIWFQNRRMKWKKSKGMQLEDLRQQLQQAEEALVAKQELIDKLKEEAEQHKIV-NH2 [BODIPY-Ant-CC2 (WT)]”, in data set [1], the pKd (commonly the Kd on a negative log10 scale, so that one unit is a factor of ten) was 4.82. For the same substance, in data set [1] (1 μM BODIPY-Ant-CC2 titrated with CC2), the “Binding stoichiometry of complex with CC2” value is 0.8. For the same substance, the “Reduction of NF-κB activation” value in data set [2] is 1.7 fold. Further, the “LPS-induced NF-κB activation in presence of peptide” value in data set [3] (20 μM peptide 2 h, LPS (3 μg/ml) 5 h, 70Z3-C3 cells) is listed as “decreased significantly”. In addition, the “Reduction of NF-κB activity as compared with a control peptide” value in data set [3] (20 μM peptide, B lymphocytes stimulated by LPS) was 70%. Further, the pIC50 (in general, the negative decadic logarithm of the IC50, by convention in mol/L) in data set [3] (70Z3-C3 cells, peptide 2 h, then LPS 5 h, β-galactosidase assay, read-out: IC50, 50% inhibition of LPS-induced NF-κB activation as compared to the control (no peptide)) is 4.66. Besides, in the data set on 70Z/3-C3 cells, the “Dependency of intracellular concentration on incubated concentration” value is “linear dependancy”.
In the case of LKAQADIYKARFQAERHAREK [NLM-DR], in data set [4], the “Helix stability by circular dichroism” value is “helix more stable than the wild-type peptide”. Also, in data set [5], the “Affinity relative to wild-type NLM peptide, without accounting for cooperativity” value was 75 times.
